Legend:
[1] = test system: MDA-MB-231; experiment: MTT cytotoxicity assay; type: cell-based; conditions: Homo sapiens, MDA-MB-231, 24 h
Text: (§1) Human BC cell lines MCF-7, MDA-MB-231, DMA-MB-436, SK-BR3, MDA-MB-468, MDA-MB-453, and MDA-MB-435S and non-tumorigenic MCF-10A human mammary epithelial cells were obtained from American Type Culture Collection (ATCC; Manassas, VA, USA). MCF-7, SK-BR3, MDA-MB-231, and MDA-MB-436 cells were maintained in Dulbecco’s modified Eagle’s medium (DMEM; high glucose; Gibco; Thermo Fisher Scientific, Inc., Waltham, MA, USA) supplemented with 10% fetal bovine serum (FBS; HyClone; Logan, UT, USA) and antibiotics and incubated in a humidified atmosphere with 5% CO2 at 37°C. MDA-MB-468, MDA-MB-453, and MDA-MB-435S cells were maintained in Leibovitz’s L-15 (Gibco) supplemented with 10% FBS and antibiotics and incubated in a humidified atmosphere without CO2 at 37°C. MCF-10A cells were maintained in DMEM/F12 medium containing 5% horse serum (HS), insulin ([…]), epidermal growth factor (EGF, 20 ng/mL), choleratoxin ([…]), hydrocortisone ([…]), penicillin (50 U/mL), and streptomycin (50 U/mL), and incubated in a humidified atmosphere with CO2 at 37°C.
(§2) Cells were seeded into 96-well plate and pre-cultured for 24 h, then treated with Eth for 24. Cell cytotoxicity was determined by MTT assay. The absorbance was measured at 490 nm by automated microplated reader (BioTek Instruments, Inc., Winooski, VT, USA), and the cell death rate was calculated as followed: inhibition rate (%) = (average A490 of the control group − average A490 of the experimental group)/(average A490 of the control group − average A490 of the blank group) × 100%. Cell viability was estimated by trypan blue dye exclusion.

[2] = test system: MDA-MB-436; experiment: MTT cytotoxicity assay; type: cell-based; conditions: Homo sapiens, MDA-MB-436, 24 h
Text: as §1, §2

[3] = test system: MDA-MB-435S; experiment: MTT cytotoxicity assay; type: cell-based; conditions: Homo sapiens, 24 h, means ± SD of quadruplicate determinations
Text: as §1, §2

[4] = test system: MDA-MB-453; experiment: MTT cytotoxicity assay; type: cell-based; conditions: Homo sapiens, MDA-MB-453, 24 h, means ± SD of quadruplicate determinations
Text: as §1, §2

[5] = test system: MCF-7; experiment: MTT cytotoxicity assay; type: cell-based; conditions: Homo sapiens, MCF7, MCF-7, 24 h
Text: as §1, §2

[6] = test system: SK-BR3; experiment: MTT cytotoxicity assay; type: cell-based; conditions: Homo sapiens, SK-BR-3, SK-BR3, 24 h, means ± SD of quadruplicate determinations
Text: as §1, §2

[7] = test system: MDA-MB-468; experiment: MTT cytotoxicity assay; type: cell-based; conditions: Homo sapiens, MDA-MB-468, 24 h, means ± SD of quadruplicate determinations
Text: as §1, §2

[8] = test system: LC3 redistribution to autophagosomes in BC cells; experiment: GFP-LC3 autophagy assay (confocal microscopy); type: cell-based, human; conditions: pQCXIP-GFP-LC3 transfected cells, Eth 24 h
Text: The cells were transfected with pQCXIP-GFP-LC3 plasmid using the Lipofectamine 3000 (Invitrogen; Thermo Fisher Scientific, Inc.) according to the recommended protocol by the manufacturer and then fixed in 4% paraformaldehyde. The percentage of cells with fluorescent dots representing GFP-LC3 translocation was counted. For visualization of cell nucleus, DAPI was used. Sections were observed using an Olympus laser scanning confocal microscope with imaging software (Olympus Fluoview FV-1000, Tokyo, Japan).
Figure 2 Eth induces autophagy in BC cells. (A): MCF-7, MDA-MB-231, or MDA-MB-436 cells were treated with increasing concentrations of Eth for 24 h. Western blot was performed using antibodies indicated. GAPDH was used as the loading control. (B): MCF-7 (MDA-MB-231 or MDA-MB-436) cells were treated with 2.4 µM (2.0 µM or 2.0 µM) Eth for the indicated times, and cell lysates were subjected to western blot assay. (C): MCF-7, MDA-MB-231, or MDA-MB-436 cells transfected with pQCXIP-GFP-LC3 plasmid were treated with increasing concentrations of Eth for 24 h, and assessed by immunoﬂuorescence analyses. Scale bar = 20 µm. (D): MDA-MB-231 or MDA-MB-436 cells transfected with pQCXIP-GFP-LC3 plasmid were treated with Eth (2.0 µM) and/or 3-MA (1 mM) for 24 h, and assessed by immunoﬂuorescence analyses. Scale bar = 20 µm. […] (F): MCF-7, MDA-MB-231, or MDA-MB-436 cells were treated with Eth (3.5 µM, 3.0 µM, or 3.0 µM) and/or 3-MA (1 mM) for 24 h and analyzed by MTT assay. (G): MCF-7, MDA-MB-231, or MDA-MB-436 cells were treated with Eth (2.4 µM, 2.0 µM, or 2.0 µM) and/or 3-MA (1 mM) for 24 h, and western blot was performed using antibodies indicated. *P < 0.05.
Figure 3 Eth induces autophagy through the AMPK/mTORC1 signaling. […] (D): MDA-MB-231 or MDA-MB-436 cells transfected with pQCXIP-GFP-LC3 plasmid were treated with Eth (2.0 µM) and/or CC (25 µM) for 24 h, and assessed by immunoﬂuorescence analyses. […] (G): MDA-MB-231 or MDA-MB-436 cells transfected with pQCXIP-GFP-LC3 plasmid were treated with Eth (1.0 µM or 1.6 µM) and/or Met (10 mM) for 24 h, and assessed by immunoﬂuorescence analyses. […]

## CCOC1c2c(ccc3c2OCO3)-c2ccc3cc4c(cc3c2N1C)OCO4 (centres unmarked) [Eth, Ethoxysanguinarine]
[1]
  IC50: 3.75 ± 0.94 µM
[2]
  IC50: 2.63 ± 0.65 µM
[3]
  IC50: 4.58 ± 0.77 µM
[4]
  IC50: 7.06 ± 0.59 µM
[5]
  IC50: 3.29 ± 1.5 µM
[6]
  IC50: 2.79 ± 0.39 µM
[7]
  IC50: 6.67 ± 1.7 µM
[8]
  GFP-LC3 staining pattern: speckled fluorescent staining pattern

Reference: publication PMC6960228, “Ethoxysanguinarine, a Novel Direct Activator of AMP-Activated Protein Kinase, Induces Autophagy and Exhibits Therapeutic Potential in Breast Cancer Cells” (Frontiers in Pharmacology, 2020)
